Measured values from patent US20040038233A1, “Diagnosis kit for mycobacterium species indentification and drug-resistance detection and manufacturing method thereof” (priority 2000, published 2004).

Experiments:
[1] = tested on: Mycobacterium tuberculosis; assay type: cell-based
[2] = tested on: strains having mutations of 511 (Leu>Pro), 516 (Asp>Tyr), 516 (Asp>Val), and 522 (Ser>Leu); details: strains with mutations 511 (Leu>Pro); cited from earlier work

In the case of `CO[C@H]1/C=C/O[C@@]2(C)Oc3c(C)c(O)c4c(c3C2=O)C2=NC3(CCN(CC(C)C)CC3)NC2=C(NC(=O)/C(C)=C\C=C\[C@H](C)[C@H](O)[C@@H](C)[C@@H](O)[C@@H](C)[C@H](OC(C)=O)[C@@H]1C)C4=O` [rifabutin, Rifabutin], the drug-susceptibility test result [1] is listed as “resistance”, the resistance classification [2] is listed as “low-level resistance” and the “rifabutin MIC” value [2] is listed as at most 5 µg/mL.
